Source: patent US20080032924A1 (priority 2004, published 2008)
Entries after “also recorded” stand apart in the source; their conditions may differ. Where no end group is shown, it is not given here.

Key:
[1] = tested on: Fusarium graminearum spores; type: cell-based
Escherichia coli = type: cell-based
Micrococcus luteus = type: cell-based
F. graminearum mycelia = type: cell-based, Fusarium graminearum
[2] = tested on: Fusarium oxysporum spores; type: cell-based
F. oxysporum mycelia = type: cell-based, Fusarium oxysporum
[3] = tested on: Leptosphaeria maculans spores; type: cell-based
Aspergillus niger spores = type: cell-based; set-up: key: an N indicates that no activity was observed
[4] = tested on: Colletotrichum gloeosporioides spores; type: cell-based; set-up: key: an N indicates that no activity was observed
Ascochyta rabiei spores = type: cell-based
C. glabrata = test: NCCLS M27-A2 microbroth dilution method; type: cell-based; settings: synthetic peptide, tested at 0.125-64 μg/ml
Procedure: (§1) Synthetic Gm-moricinA was also tested against six yeast species using the NCCLS M27-A2 microbroth dilution method at the Women's and Children's Hospital (Adelaide, Australia). The yeasts tested were Candida albicans, C. parapsilosis, C. glabrata, C. krusei, C. tropicalis and Cryptococcus neoformans. The peptide was tested at 0.125-64 μg/ml, with each yeast species tested in duplicate. Trays were read at 24, 48 or 72 hours as appropriate.

C. krusei = test: NCCLS M27-A2 microbroth dilution method; type: cell-based; settings: synthetic peptide, tested at 0.125-64 μg/ml
Procedure: as §1

C. parapsilosis = test: NCCLS M27-A2 microbroth dilution method; type: cell-based; settings: synthetic peptide, tested at 0.125-64 μg/ml
Procedure: as §1

C. tropicalis = test: NCCLS M27-A2 microbroth dilution method; type: cell-based; settings: synthetic peptide, tested at 0.125-64 μg/ml
Procedure: as §1

Candida albicans = test: NCCLS M27-A2 microbroth dilution method; type: cell-based; settings: synthetic peptide; C. albicans; tested at 0.125-64 μg/ml; read at 24, 48 or 72 hours
Procedure: as §1

Cryptococcus neoformans = test: NCCLS M27-A2 microbroth dilution method; type: cell-based; settings: synthetic peptide; C. neoformans; tested at 0.125-64 μg/ml
Procedure: as §1

| Substance | activity against F. graminearum [1] | lowest concentration at which activity was observed in the zone inhibition assay, Eco (Escherichia coli) [µM] | lowest concentration at which activity was observed in the zone inhibition assay, Mlu (Micrococcus luteus) [µM] | lowest concentration at which activity was observed in the zone inhibition assay, Fgr [1] [µM] | lowest concentration at which activity was observed in the zone inhibition assay, Fgm (F. graminearum mycelia) [µM] | lowest concentration at which activity was observed in the zone inhibition assay, Fox [2] [µM] | lowest concentration at which activity was observed in the zone inhibition assay, Fom (F. oxysporum mycelia) [µM] | lowest concentration at which activity was observed in the zone inhibition assay, Lma [3] [µM] | lowest concentration at which activity was observed in the zone inhibition assay, Ani (Aspergillus niger spores) | lowest concentration at which activity was observed in the zone inhibition assay, Cgl [4] | activity against A. rabiei (Ascochyta rabiei spores) | lowest concentration at which activity was observed in the zone inhibition assay, Ara (Ascochyta rabiei spores) [µM] | activity against L. maculans [3] | MIC90 (C. glabrata) [µg/mL] | MIC90 (C. krusei) [µg/mL] | MIC90 (C. parapsilosis) [µg/mL] | MIC90 (C. tropicalis) [µg/mL] | MIC90 (Candida albicans) [µg/mL] | MIC90 (Cryptococcus neoformans) [µg/mL] |
| --- | --- | --- | --- | --- | --- | --- | --- | --- | --- | --- | --- | --- | --- | --- | --- | --- | --- | --- | --- |
| Gm-moricinC1: Antifungal moricin-like peptide purified from Galleria mellonella hemolymph, SEQ ID NO:48 (KVPIGAIKKGGKIIKKGLGVIGAAGTAHEVYSHVKNRH; listed as Galleria mellonella) | had activity |  |  |  |  |  |  |  |  |  |  |  |  |  |  |  |  |  |  |
| Gm-moricinB: Antifungal moricin-like peptide from Galleria mellonella, SEQ ID NO:5 (GGQIIGKALRGINIASTAHDIISQFKPKKKKNH; listed as Galleria mellonella) | showed activity | 100 | 100 | 10 | 280 | 100 | 280 | 100 | N | N |  |  |  |  |  |  |  |  |  |
| KVNVNAIKKGGKAIGKGFKVISAASTAHDVYEHIKNRRH [Gm-moricinA] | had activity; also recorded: showed activity | 10 | 10 | 1 | 100 | 10 | 10 | 10 | N | N | showed activity | 1 | showed activity | 64.0 | 8.0 | 4.0 | 4.0 | 64.0 | 4.0 |
| Bm-moricin: Synthetic B. mori moricin (residues 25 to 66 of SEQ ID NO:16) (AKIPIKAIKTVGKAVGKGLRAINIASTANDVFNFLKPKKRKH; listed as Bombyx mori) [reference compound] |  | 10 | 10 | 10 | 180 | 100 | 100 | 100 | N | N |  | 100 |  |  |  |  |  |  |  |
| Gm-moricinC2: Moricin-like peptide from Galleria mellonella, SEQ ID NO:53, synthesised (KVPIGAIKKGGKIIKKGLGVLGAAGTAHEVYNHVRNRQ; listed as Galleria mellonella) |  | 10 | 100 | 1 | 10 |  | 10 | 10 | N |  |  |  |  |  |  |  |  |  |  |
